In test [1] the target is T1, Gastric triacylglycerol lipase (Canis lupus familiaris) (UniProt P80035).
T1 sequence (whole entry): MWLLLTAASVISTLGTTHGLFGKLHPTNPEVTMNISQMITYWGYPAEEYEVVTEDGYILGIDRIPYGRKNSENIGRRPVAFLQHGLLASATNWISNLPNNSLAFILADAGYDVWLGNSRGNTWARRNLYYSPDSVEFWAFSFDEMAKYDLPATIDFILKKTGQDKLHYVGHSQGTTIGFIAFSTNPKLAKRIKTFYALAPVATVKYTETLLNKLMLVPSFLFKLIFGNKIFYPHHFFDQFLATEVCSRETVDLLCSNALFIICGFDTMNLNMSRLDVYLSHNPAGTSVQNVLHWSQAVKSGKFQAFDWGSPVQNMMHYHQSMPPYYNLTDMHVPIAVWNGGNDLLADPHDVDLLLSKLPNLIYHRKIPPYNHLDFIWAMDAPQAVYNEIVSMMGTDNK
Nature of the test: Inhibition of recombinant DGL expressed in transgenic maize assessed as half inactivation time at 20 molar excess in presence of NaTDC.

Test [2] has as its target T2, Bile salt-activated lipase (Homo sapiens) (UniProt P19835).
T2 sequence (whole entry): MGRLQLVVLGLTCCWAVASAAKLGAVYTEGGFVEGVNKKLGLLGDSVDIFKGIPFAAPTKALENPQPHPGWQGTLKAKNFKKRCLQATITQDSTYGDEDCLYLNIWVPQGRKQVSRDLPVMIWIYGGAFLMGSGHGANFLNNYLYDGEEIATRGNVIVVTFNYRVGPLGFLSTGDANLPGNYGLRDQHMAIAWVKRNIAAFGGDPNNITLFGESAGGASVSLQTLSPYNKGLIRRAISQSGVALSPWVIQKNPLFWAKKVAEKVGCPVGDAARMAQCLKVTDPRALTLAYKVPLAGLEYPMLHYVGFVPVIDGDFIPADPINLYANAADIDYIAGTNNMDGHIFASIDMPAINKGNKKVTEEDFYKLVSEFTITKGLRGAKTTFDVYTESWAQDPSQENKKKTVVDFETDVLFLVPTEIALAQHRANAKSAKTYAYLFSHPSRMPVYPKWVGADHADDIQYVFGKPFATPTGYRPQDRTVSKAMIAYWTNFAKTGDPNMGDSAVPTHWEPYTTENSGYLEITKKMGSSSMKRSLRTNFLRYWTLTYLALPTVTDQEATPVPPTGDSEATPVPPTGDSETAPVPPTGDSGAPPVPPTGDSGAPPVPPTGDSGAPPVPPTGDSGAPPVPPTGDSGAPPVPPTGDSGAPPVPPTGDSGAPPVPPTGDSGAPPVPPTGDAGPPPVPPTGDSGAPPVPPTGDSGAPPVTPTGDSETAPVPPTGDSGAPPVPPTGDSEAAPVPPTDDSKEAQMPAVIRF
Put plainly: Inhibition of human pancreatic CEH at 2 molar excess after 30 mins.

The species entered for a further test is Sus scrofa. Nature of the test: Inhibition of porcine Pancrelipase at 400 molar excess after 30 mins.
For test [3], the target named is T1, Gastric triacylglycerol lipase (Canis lupus familiaris). Put plainly: Inhibition of recombinant DGL expressed in transgenic maize assessed as hydrolysis of trybutyrin emulsion at 10 to 40 molar excess after 30 mins in presence of NaTDC.
The target in test [4] is T3, Pancreatic lipase-related protein 2 (Homo sapiens) (UniProt P54317).
T3 sequence (whole entry): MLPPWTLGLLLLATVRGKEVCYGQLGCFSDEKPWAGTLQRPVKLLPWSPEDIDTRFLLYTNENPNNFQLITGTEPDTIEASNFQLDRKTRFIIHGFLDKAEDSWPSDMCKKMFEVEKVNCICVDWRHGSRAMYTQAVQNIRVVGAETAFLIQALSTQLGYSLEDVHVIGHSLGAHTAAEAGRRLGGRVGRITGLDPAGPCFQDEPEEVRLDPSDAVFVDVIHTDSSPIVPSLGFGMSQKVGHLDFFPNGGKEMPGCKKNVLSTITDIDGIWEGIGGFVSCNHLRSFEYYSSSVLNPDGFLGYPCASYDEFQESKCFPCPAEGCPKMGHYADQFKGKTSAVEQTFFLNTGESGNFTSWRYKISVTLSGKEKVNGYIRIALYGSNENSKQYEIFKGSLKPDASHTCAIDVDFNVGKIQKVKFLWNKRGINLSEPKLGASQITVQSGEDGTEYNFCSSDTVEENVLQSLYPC
Nature of the test: Inhibition of recombinant HPLRP2 expressed in Pichia pastoris at 2 molar excess after 30 mins in presence of NaTDC.

For test [5], the target named is T4, Pancreatic lipase-related protein 2 (Cavia porcellus) (UniProt P81139).
T4 sequence (whole entry): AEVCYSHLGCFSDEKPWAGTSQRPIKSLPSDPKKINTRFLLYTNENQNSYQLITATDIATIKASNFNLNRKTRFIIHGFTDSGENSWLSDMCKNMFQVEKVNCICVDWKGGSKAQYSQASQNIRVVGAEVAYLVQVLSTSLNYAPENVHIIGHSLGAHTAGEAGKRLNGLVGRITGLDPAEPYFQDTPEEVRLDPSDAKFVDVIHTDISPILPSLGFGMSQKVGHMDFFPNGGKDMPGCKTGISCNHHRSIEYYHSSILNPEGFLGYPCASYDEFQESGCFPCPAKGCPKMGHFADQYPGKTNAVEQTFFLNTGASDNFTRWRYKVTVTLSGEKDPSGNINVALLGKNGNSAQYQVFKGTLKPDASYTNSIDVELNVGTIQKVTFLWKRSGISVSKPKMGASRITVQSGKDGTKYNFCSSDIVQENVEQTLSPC
Put plainly: Inhibition of recombinant GPLRP2 expressed in Aspergillus oryzae at 2 molar excess after 30 mins in presence of NaTDC.

Test [6] deals with T5, Pancreatic triacylglycerol lipase (Homo sapiens) (UniProt P16233).
T5 sequence (whole entry): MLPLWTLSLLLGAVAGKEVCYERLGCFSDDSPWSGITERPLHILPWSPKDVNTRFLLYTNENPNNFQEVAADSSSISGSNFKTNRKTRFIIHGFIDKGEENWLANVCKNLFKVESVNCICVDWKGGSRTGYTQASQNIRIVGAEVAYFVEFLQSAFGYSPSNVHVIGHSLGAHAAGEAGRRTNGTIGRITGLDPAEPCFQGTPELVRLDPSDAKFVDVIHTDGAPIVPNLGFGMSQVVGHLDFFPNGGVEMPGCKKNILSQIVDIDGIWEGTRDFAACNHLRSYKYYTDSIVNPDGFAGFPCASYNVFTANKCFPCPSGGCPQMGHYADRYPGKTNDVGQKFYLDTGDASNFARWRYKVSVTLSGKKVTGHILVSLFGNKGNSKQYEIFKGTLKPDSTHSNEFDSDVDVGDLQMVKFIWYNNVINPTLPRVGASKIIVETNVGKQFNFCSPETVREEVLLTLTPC
Put plainly: Inhibition of recombinant HPL expressed in Pichia pastoris at 100 molar excess after 30 mins in presence of NaTDC.

For test [7], the target named is T4, Pancreatic lipase-related protein 2 (Cavia porcellus). Put plainly: Inhibition of recombinant GPLRP2 expressed in Aspergillus oryzae assessed as half inactivation time at 2 molar excess in presence of NaTDC.
Test [8] shares this target. Nature of the test: Inhibition of recombinant GPLRP2 expressed in Aspergillus oryzae at 20 molar excess after 30 mins in presence of NaTDC.
Test [9] has as its target T5, Pancreatic triacylglycerol lipase (Homo sapiens). Put plainly: Inhibition of recombinant HPL expressed in Pichia pastoris after 30 mins in presence of NaTDC.

The structures appear in SMILES notation. The source made the active and inactive calls. No cut-off for these calls is given here.

`CCCCCCCCCCC[C@@H](C[C@@H]1OC(=O)[C@H]1CCCCCC)OC(=O)[C@H](CC(C)C)NC=O`: the figures for the T1/2 in [1] and in [7] were 0.59 min and 0.4 min, respectively. Besides, the inhibition is 80.1% in test [2]; 93.1% in the test filed under Sus scrofa; 60% in [3]; 83.6% in [4]; 82.7% in test [5]; 77.2% in test [6]. Besides, the inhibition in test [8] turned out to be 87.3%.

For `COc1nn(-c2ccc(Oc3ccccc3)cc2)c(=O)o1`, the XI50 in test [9] is above 400 molar excess. Further, the T1/2 is 9.31 min in test [1] and above 60 min in [7]. Moreover, the inhibition was found to be 77.1% in [2]; 90.6% in the test filed under Sus scrofa; 66% in test [4]; 13.3% in [5]; 23.6% in test [8]. For the same compound, the inhibition entry in [3] is “Active”. Also, the inhibition result in test [6] is “inactive”.

In the case of `COc1nn(-c2ccccc2)c(=O)o1`, in test [9], the XI50 result is “inactive”. Moreover, the values for the T1/2 in test [1] and in [7] were above 60 min and 9.97 min, respectively. Also, the inhibition in [2] was 71.6%; in the test listed under Sus scrofa, 34.1%; in test [4], 49.9%; in test [5], 77.6%; in test [8], 86%. Moreover, the inhibition result in test [6] is “inactive”.

Turning to `COc1nn(-c2cccc(Oc3ccccc3)c2)c(=O)o1`, in [9], the XI50 was above 400 molar excess. Further, the T1/2 in test [1] was 1.88 min; in [7] it was 0.46 min. Further, the inhibition in test [2] was 54.5%; in the test filed under Sus scrofa it was 89.7%; in test [4], 63.7%; in [5], 80.1%; in test [6] it was 26.3%; in test [8], 90.4%. For the same compound, the inhibition result in test [3] was “Active”.

In general, inhibition refers to the percentage by which the read-out fell short of the control.
